Experimental data as given in patent publication US5739163A, “Aromatic compounds containing basic and acidic termini useful as fibrinogen receptor antagonists” (The DuPont Merck Pharmaceutical Company, priority 1996, dated 1998).
Structures can show the parent of a compound that is named as a salt.

Test system: agonist-induced platelet aggregation
Assay: Platelet Aggregation Assay
Assay type: cell-based
Conditions: Homo sapiens, Platelet, human platelet-rich plasma, class symbols
Procedure: Platelet Aggregation Assay: Venous blood was obtained from the arm of a healthy human donor who was drug-free and aspirin-free for at least two weeks prior to blood collection. Blood was collected into 10 mL citrated Vacutainer tubes. The blood was centrifuged for 15 minutes at 150×g at room temperature, and platelet-rich plasma (PRP) was removed. The remaining blood was centrifuged for 15 minutes at 1500×g at room temperature, and platelet-poor plasma (PPP) was removed. […] The results are expressed as % inhibition of agonist-induced platelet aggregation. For the IC50 evaluation, the test compounds were added at various concentrations prior to the activation of the platelets.

| IC50 [µM] | SMILES |
| --- | --- |
| < 10 | C=CCOc1ccc(OCCN)cc1C(=O)/C=C/c1ccc(OCC(=O)O)c(C(=O)OCC)c1 [Example 3, (E)-Ethyl 5-[3-((2-(1-prop-2-enyloxy)-5-(2aminoethoxy)phenyl))-3-oxo-1-propenyl]-2-(carboxymethoxy)benzoate.trifluoroacetate] |
| 51 to 100 | CCOC(=O)COC(=O)c1cc(/C=C/C(=O)c2cccc(OCCN)c2)ccc1OCC(=O)O [Example 27, (E)-(2-Ethoxy-2-oxoethyl) 5-[3-((3-(2-amino-ethoxy)phenyl))-3-oxo-1-propenyl]-2-(carboxymethoxy)-benzoate.trifluoroacetate] |
| < 10 | NCCOc1ccc(OCc2ccccc2)c(C(=O)/C=C/c2ccc(OCC(=O)O)c(C(=O)OCC(=O)O)c2)c1 [Example 43] |
| 51 to 100 | NCc1cccc(C(=O)/C=C/c2ccc(OCC(=O)O)c(OCC(=O)O)c2)c1 [Example 76] |
| 10 to 50 | CCCCOC(=O)c1cc(/C=C/C(=O)c2cccc(OCCN)c2)ccc1OCC(=O)O [Example 24, (E)-n-Butyl 5-[3-((3-(2-aminoethoxy)-phenyl))-3-oxo-1-propenyl]-2-(carboxymethoxy)benzoate-trifluoroacetate] |
| < 10 | NCCOc1cccc(C(=O)/C=C/c2ccc(OCC(=O)O)c([N+](=O)[O-])c2)c1 [Example 26, (E)-4-[3-((3-(2-Aminoethoxy)phenyl))-3-oxo-1-propenyl]-2-nitrophenoxyacetic acid.trifluoroacetate] |
| < 10 | NCCOc1cccc(C(=O)/C=C/c2ccc(OCC(=O)O)c(C(=O)OCC(=O)O)c2)c1 [Example 25, (E)-(Carboxymethyl) 5-[3-((3-(2aminoethoxy)-phenyl))-3-oxo-1-propenyl]-2-(carboxymethoxy)benzoate.trifluoroacetate] |
| 51 to 100 | NCCOc1cccc(C(=O)/C=C/c2ccc(OCC(=O)O)c(C(=O)OCc3ccccc3)c2)c1 [Example 28, (E)-Benzyl 5-[3-((3-(2-aminoethoxy)phenyl))-3-oxo-1-propenyl]-2-(carboxymethoxy)benzoate.trifluoroacetate] |
| 51 to 100 | CCOc1cc(/C=C/C(=O)c2cccc(CCN)c2)ccc1OCC(=O)O [Example 91, (E)-4-[3-((3-(2-Aminoethyl)phenyl))-3-oxo-1-propenyl]-2-ethoxyphenoxyaceticacid trifluoroacetate] |
| < 10 | COc1cc(/C=C/C(=O)c2cccc(OCCN)c2)ccc1OCC(=O)O [Example 23] |
| < 10 | C=CCOc1ccc(OCCN)cc1C(=O)/C=C/c1ccc(OCC(=O)O)c(C(=O)OCC(=O)O)c1 [Example 44, (E)-(Carboxymethyl) 5-((3-((2-(1-prop-2-enyloxy)-5-(2-aminoethoxy)phenyl))-3-oxo-1-propenyl))-2-(carboxymethoxy)benzoate.trifluoroacetate] |
| < 10 | CCOc1cc(/C=C/C(=O)c2cccc(OCCN)c2)ccc1OCC(=O)O [Example 22, (E)-4-[3-((3-(2-Aminoethoxy)phenyl))-3-oxo-1-propenyl]-2-ethoxyphenoxyacetic acid.trifluoroacetate] |
| 10 to 50 | COc1cc(OCC(=O)O)ccc1/C=C/C(=O)c1cccc(OCCN)c1 [Example 65, (E)-4-[3-((3-(2-Aminoethoxy)phenyl))-3-oxo-1-propenyl]-3-methoxyphenoxyacetic acid.hydrochloride] |
| 10 to 50 | COc1cc(/C=C/C(=O)c2cccc(CNC(=N)N)c2)ccc1OCC(=O)O [Example 112, (E)-4-[3-((3-(guanidinylmethyl)phenyl))-3-oxo-1-propenyl]-2-methoxyphenoxyacetic acid.trifluoroacetate] |
| 10 to 50 | COC(=O)c1cc(/C=C/C(=O)c2cccc(OCCN)c2)ccc1OCC(=O)O [Example 30] |
| < 10 | COc1cc(/C=C/C(=O)c2cccc(N3CCNCC3)c2)ccc1OCC(=O)O [Example 120] |
| 51 to 100 | NCCOc1cccc(C(=O)/C=C/c2ccc(OCC(=O)O)c(-c3ccccc3)c2)c1 [Example 75c] |
| 10 to 50 | NCCOc1cccc(C(=O)/C=C/c2ccc(OCC(=O)O)c(OCC(=O)O)c2)c1 [Example 29, (E)-4-[3-((3-(2-Aminoethoxy)phenyl))-3-oxo-1-propenyl]benzene-1,2-bis(oxyacetic acid).trifluoroacetate] |
| 10 to 50 | CCOC(=O)c1cc(/C=C/C(=O)c2cccc(OCCN)c2)ccc1OCC(=O)O [Example 2, (E)-Ethyl 5-[3-((3-(2-aminoethoxy)phenyl))-3-oxo-1-propenyl]-2-(carboxymethoxy)benzoate.trifluoroacetate] |
| 10 to 50 | CCOc1cc(OCCN)cc(C(=O)/C=C/c2ccc(OCC(=O)O)cc2)c1 [Example 21, (E)-4-[3-((3-(2-Aminoethoxy)-5-ethoxyphenyl))-3-oxo-1-propenyl]phenoxyacetic acid.trifluoroacetate] |
| 10 to 50 | CCOC(=O)c1cc(/C=C/C(=O)c2cc(OCC)cc(OCCN)c2)ccc1OCC(=O)O [Example 20, (E)-Ethyl 5-[3-((3-(2-aminoethoxy)-5-ethoxyphenyl))-3-oxo-1-propenyl]-2-(carboxymethoxy)benzoate.trifluoroacetate] |
| 51 to 100 | NCCOc1cccc(C(=O)CCc2ccc(OCC(=O)O)cc2)c1 [Example 126, 4-[3-((3-(2-Aminoethoxy)phenyl))-3-oxo-1-propyl]phenoxyacetic acid.hydrochloride] |
| 10 to 50 | CNCCOc1cccc(C(=O)/C=C/c2ccc(OCC(=O)O)c(OC)c2)c1 [Example 121, (E)-4-[[3-[3-((2-(methylamino)ethoxy))-phenyl]-3-oxo-1-propenyl]]-2-methoxyphenoxyacetic acid.trifluoroacetate] |

Same assay, conditions: Homo sapiens, Platelet, human platelet-rich plasma, numeric bound

| IC50 [µM] | SMILES |
| --- | --- |
| > 100 | NCc1ccc(C(=O)/C=C/c2ccc(CCC(=O)O)cc2)cc1 [Example 245] |
| > 100 | NCCCCc1ccc(C(=O)/C=C/c2ccc(CCC(=O)O)cc2)cc1 [Example 243] |
| > 100 | NCc1cccc(C(=O)/C=C/c2ccc(OCC(=O)O)cc2)c1 [Example 125a] |
| > 100 | CCOC(=O)c1cc(/C=C/C(=O)c2ccccc2OCCCN)ccc1OCC(=O)O [Example 251] |
| > 100 | CN(C)CCOc1cccc(C(=O)/C=C/c2cccc(C(=O)O)c2)c1 [Example 248] |
| > 100 | COc1ccc(/C=C/C(=O)c2cccc(OCCN)c2)cc1CC(=O)O [Example 252] |
| > 100 | NCCc1cccc(C(=O)/C=C/c2ccc([N+](=O)[O-])c(OCC(=O)O)c2)c1 [Example 240] |
| > 100 | CCOC(=O)c1cc(/C=C/C(=O)c2cccc(C#CCN)c2)ccc1OCC(=O)O [Example 247] |
| > 100 | NCCOc1cccc(C(=O)/C=C/c2ccc(OCCC(=O)O)cc2)c1 [Example 242] |
| > 100 | COc1cc(C(=O)/C=C/c2cccc(OCCN)c2)ccc1OCC(=O)O [Example 211, (E)-4-[3-((3-(2-aminoethoxy)phenyl))-1-oxo-prop-2-enyl]-2-methoxyphenoxyacetic acid.trifluoroacetate] |
| > 100 | C=CCc1cc(/C=C/C(=O)c2cccc(OCCN)c2)cc(C(=O)OC)c1OCC(=O)O [Example 75b] |
| > 100 | NCCCCc1ccc(C(=O)/C=C/c2ccc(OCC(=O)O)cc2)cc1 [Example 241] |
| > 100 | NCCc1cccc(C(=O)/C=C/c2ccc(OCC(=O)O)c([N+](=O)[O-])c2)c1 [Example 93] |
| > 100 | NCc1ccc(C(=O)/C=C/c2ccc(OCC(=O)O)c([N+](=O)[O-])c2)cc1 [Example 250] |
| > 100 | NCc1cccc(C(=O)/C=C/c2cccc(OCC(=O)O)c2)c1 [Example 244] |

Same assay, conditions: human platelet-rich plasma, 100 μM

| SMILES | inhibition at 100 µM [%] |
| --- | --- |
| NCc1ccc(C(=O)/C=C/c2ccc(CCC(=O)O)cc2)cc1 [Example 245] | 19 |
| CCOC(=O)c1cc(/C=C/C(=O)c2ccccc2OCCCN)ccc1OCC(=O)O [Example 251] | 18 |
| CN(C)CCOc1cccc(C(=O)/C=C/c2cccc(C(=O)O)c2)c1 [Example 248] | 13 |
| COc1ccc(/C=C/C(=O)c2cccc(OCCN)c2)cc1CC(=O)O [Example 252] | 38 |
| NCCc1cccc(C(=O)/C=C/c2ccc(OCC(=O)O)c([N+](=O)[O-])c2)c1 [Example 93] | 21 |

Same assay, conditions: human platelet-rich plasma, class symbols

| IC50 [µM] | SMILES |
| --- | --- |
| 51 to 100 | NCCOc1cccc(C(=O)/C=C/c2ccc(OCC(=O)O)cc2)c1 [Example 75a] |
| 10 to 50 | NCCOc1cccc(C(=O)/C=C/c2ccc(OCC(=O)O)cc2)c1 [Example 1, (E)-4-[3-((3-(2-Aminoethoxy)phenyl))-3-oxo-1-propenyl]phenoxyacetic acid.hydrochloride] |

| SMILES | IC50 [µM] |
| --- | --- |
| CCOC(=O)c1cc(/C=C/C(=O)c2cccc(CC(C)N)c2)ccc1OCC(=O)O (stereo not shown) [Example 101, (E)-Ethyl 5-[3-((3-(2-aminopropyl)phenyl))-3-oxo-1-propenyl]-2(carboxymethoxy)benzoate.trifluoroacetate] | 10 to 50 |
